According to publication PMC6030159 (Scientific Reports, 2018):
“Also recorded” adds a separate entry of the source.

Experiments:
[1] = tested on: tumor cell growth in vivo; conditions: cited from earlier work
[2] = tested on: MYC-family protein levels; set-up: method as in PMID 28976731, PMID 24859015, PMID 23733953; conditions: cited from earlier work
[3] = target: MYC; set-up: method as in PMID 24859015; conditions: read-out: KD for MYC by SPR; cited from earlier work
[4] = tested on: MYCN-amplified neuroblastoma cells (IMR-32, Kelly, SK-N-DZ); assay: Resazurin growth assay, MYCN-amplified neuroblastoma cell lines; assay type: cell-based, human; conditions: MYCMI-6 6.25 μM, MYCMI-11 and MYCMI-14 25 μM, 10058-F4 64 μM, 48 hours
Description: HEK293A, MCF7, MDA-MB231, SK-N-F1, SK-N-RA, SK-N-AS, COS-7, HeLa, BJ cells, and Rat1 fibroblasts TGR-1 (wt), HO15.19 (MYC knockout) and HOmyc3 (MYC reconstituted HO15.19) were maintained in DMEM. The neuroblastoma cell lines Kelly, IMR-32 and SK-N-DZ, and the Burkitt’s lymphoma cell lines Mutu, Daudi and ST486 were kept in RPMI. SK-N-BE(2) cells were maintained in a 1:1 mixture of EMEM and F12 media, supplemented with 1% non-essential amino acid solution (NEAA) and 0.5% Glutamine. U2OS-MYC-ER cell lines were cultured in phenol-red free DMEM and treated with 100 nM 4-hydroxytamoxifen (HOT) (Sigma-Aldrich) to activate MYC-ER. IMR-90 was maintained in MEM. All media were supplemented with 10% FBS and 1% penicillin and streptomycin and kept at 37 °C and 5% CO2. All cell lines were mycoplasma free. Cell proliferation assays were performed as described in Supplementary Information. […]
Cell proliferation assays. Cell growth and viability was estimated in triplicates with WST-1
(Roche) or Resazurin sodium salt (Sigma-Aldrich) assays in medium at 37°C and 5% CO 2 for
2 hours after which absorbance or fluorescence, respectively, was measured with an Omega
Fluostar (BMG Labtech) in a 96 well plate format. […]

[5] = target: T1, MYCbHLHZip:MAXbHLHZip (Homo sapiens, UniProt P01106); assay: SPR MYC:MAX heterodimer formation assay; assay type: binding; conditions: KJ-Pyr-9 up to 10 μM
T1 construct: 6xHis (N); made in house; host or cells: E. coli BL21 (DE3), pET28a
T1 sequence (P01106 367-447 limits assumed): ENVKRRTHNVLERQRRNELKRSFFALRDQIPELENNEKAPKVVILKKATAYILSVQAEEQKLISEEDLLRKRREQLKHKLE
Protocol: The SPR method is a highly sensitive assay to determine the affinity between protein and ligand and to measure the kinetics of the interaction. In the SPR MYC:MAX interaction assay, MAXbHLHZip was covalently attached onto a sensor chip and MYCbHLHZip pre-mixed with compound was injected over the surface and thereafter allowed to dissociate.
The SPR experiments were performed at 25 °C using a Biacore T200 (GE Healthcare) instrument kindly provided by SciLifeLab Solna. An amino coupling procedure was used to immobilize protein on a CM5 sensor chip (GE Healthcare). Sensorgrams were generated by subtraction of the reference (blank immobilized) surface. All details will be described in Castell et al. (manuscript in preparation). In general, for the MYC:MAX interaction assay, 200–500 RU of MAXbHLHZip was immobilized and 100 nM MYCbHLHZip pre-incubated with compound in PBS supplemented with 0.05% Tween-20 and 1% DMSO was injected with a flow rate of 30 µl/min and allowed to dissociate. MAX was regenerated by injection of PBS buffer supplemented with Urea.

[6] = tested on: MAX; set-up: method as in PMID 25114221; conditions: cited from earlier work
[7] = tested on: recombinant MYC:MAX:DNA; set-up: method as in PMID 28976731, PMID 25114221; conditions: fluorescence polarization; read-out: IC50, MYC:MAX:DNA interaction; cited from earlier work
[8] = target: T2, MYC bHLHZip (Homo sapiens, UniProt P01106); assay: SPR direct binding to immobilized MYC; conditions: up to 8 μM
T2 construct: 6xHis (N); made in house; host or cells: E. coli BL21 (DE3), pET28a; purified in denaturing conditions
T2 sequence (P01106 367-447 limits assumed): as above
Protocol: Further, MYCMI-6 binding to MAX, MXD1 (MAD1) (Figs 4C and S5C and D), p53 (Fig. 4D), BSA (Suppl. Fig. S5E) and YFP (data not shown) were negligible. Binding to BCL-XL was only 10% of the theoretical maximum at 2 μM MYCMI-6 (Suppl. Fig. S5F).
The MYC SPR assay was carried out as described above with MYCbHLHZip immobilized to a level of 800–1000 RU. For kinetic binding experiments, a Langmuir 1:1 binding event was applied using the Biacore T200 Evaluation Software 2.0 (GE Healthcare) to determine association (ka) and dissociation (kd) constants of the compound and to calculate affinity (KD) by the formula; KD = kd/ka. Binding responses from equilibrium binding experiments were plotted against compound concentration and KD values were determined at 50% of the theoretical Rmax with the formula Rmax = (MW analyte/MW ligand) × immobilized ligand level on the chip (RU) × stoichiometry (1:1). Same coupling method described above was used to immobilize the control proteins. MAX was immobilized to approximately 2000 RU, MAD to 600 RU, BSA to 1000 RU, p53 to 3000 RU and BCL-XL, to 500 RU.

[9] = tested on: MAX:MAX:DNA; set-up: method as in PMID 28976731, PMID 25114221; conditions: fluorescence polarization; read-out: IC50, MAX:MAX:DNA interaction; cited from earlier work
[10] = tested on: T3, MYC:MAX; assay: Gaussia luciferase complementation (GLuc) MYC:MAX; assay type: cell-based, human; conditions: 25 μM, 17 hours, HEK293 cells
T3 construct: fused to full length MYC (MYC-GLuc-C) and MAX (MAX-GLuc-N), respectively; expressed in transfected cells; host or cells: HEK293
Protocol: The protein fragment complementation assay using the Gaussia luciferase has been described. 0.2–0.4 μg of each GLuc-construct (see Supplementary Information) together with 0.05–0.2 μg pCMV-Luc (Firefly luciferase) were transiently transfected into HEK293 or COS-7 cells in 6-well plates. 24 hours later cells were treated with compound (10–25 μM) or DMSO. After another 17 hours, the cells were harvested and lyzed in passive lysis buffer (Promega) supplemented with complete protease inhibitor (Roche). After 60 min incubation at room temperature 20 μM D-luciferin was added (substrate of Firefly luciferase) and luminescence was measured in a Lumat LB9501 (Berthold) or OmegaFluostar (BMG Labtech) luminometer. Directly after, Gaussia luciferase substrate Coelenterazine (Promega) was added to a final concentration of 20 μM in a mixture with “Stop n’ Glow” (Promega) and the luciferase activity was measured. The ratio between Gaussia and Firefly luciferase values were calculated and normalized to DMSO-treated control cells.

[11] = tested on: endogenous MYC protein; assay: Western blot of endogenous MYC in HeLa cells; assay type: cell-based; conditions: 10 μM, 24 hours
Protocol: These assays were performed essentially as described in[67],[68]. For further information on immunohistochemistry, and on primers and antibodies, see Supplementary Information.

## CCc1ccc(/C=C2/SC(=S)NC2=O)cc1 [10058-F4]
[1]
  tumor cell growth in vivo, mouse tumor models: Inhibition of tumor cell growth in vivo
[2]
  effect on MYC-family protein levels: down-regulate
[3]
  Kd: ~40 µM
[4]
  growth of MYCN-amplified versus MYCN-non-amplified neuroblastoma cell lines: reduced growth of the MYCN-amplified cell lines significantly stronger than the MYCN-non-amplified cell lines

## O=[N+]([O-])c1ccc(Nc2ccccc2-c2ccccc2)c2nonc12 [10074-G5]
[2]
  effect on MYC-family protein levels: down-regulate
[3]
  Kd: ~32 µM

## NC(=O)c1ccc(-c2cc(-c3ccc([N+](=O)[O-])cc3)nc(-c3ccco3)c2)cc1 [KJ-Pyr-9]
[5]
  effect on MYC:MAX formation (SPR), in words: no effect; also recorded: not affect the MYC:MAX interaction
[6]
  binding to MAX, BSI: not MAX
[1]
  tumor cell growth in vivo, mouse tumor models: Inhibition of tumor cell growth in vivo
[7]
  IC50: ~10 µM
[8]
  binding to immobilized MYC (SPR), in words: not detect any binding
[9]
  IC50: ~30 µM

## CCN(CC)CC[n+]1ccc2c(C)c3[nH]c4ccccc4c3c(C)c2c1 [MYCMI-7]
[10]
  MYC:MAX GLuc activity: most potent
[11]
  effect on endogenous MYC protein levels (western blot): reduced MYC protein expression
